From PMC5882164, “A novel calcimimetic agent, evocalcet (MT-4580/KHK7580), suppresses the parathyroid cell function with little effect on the gastrointestinal tract or CYP isozymes in vivo and in vitro” (PLoS ONE, 2018)
Where “and” joins values, the source holds several entries; their conditions need not be identical. Equal entries are not always repeated.

Tests used:
serum PTH [1] = assay: Normal rat study: serum PTH level after oral administration; assay type: in vivo; details: normal rats
Protocol: (§1) After acclimatization, rats were divided into nine groups (n = 10/group) matched in terms of body weight, and their serum PTH and calcium levels. Vehicle, 0.5% (w/v) methyl cellulose (Wako Pure Chemical Industries, Ltd.) solution orally administered to vehicle treatment group rats. Evocalcet (0.03, 0.1, 0.3, or 1 mg/kg), or cinacalcet (1, 3, 10, or 30 mg/kg) were suspended in the vehicle solution and orally administered to each drug treatment group. Blood samples were collected from the tail vein before and at 0.5, 2, 4, 6, 8, and 24 h after the oral administration.
(§2) The serum PTH level was measured using a Rat Intact PTH ELISA kit (Immutopics, Inc., San Clemente, CA). The serum calcium, phosphate and BUN levels were measured using an auto analyzer (Hitachi High-Technologies Corporation., Tokyo, Japan) or the following test kits: the Calcium E-test WAKO, the Phospha C-test WAKO, or the Blood Urea nitrogen B-test WAKO (Wako Pure Chemical Industries, Ltd., Osaka, Japan).

gastric emptying = assay: Evaluation of gastric emptying in rats (phenol red); assay type: in vivo, rat
Protocol: The study of gastric emptying in rats was performed by referencing a previously reported method. […] The rats were divided into eight body-weight-matched groups (n = 8/group). […] Ten minutes later, 0.05 w/v% phenol red, a non-absorbable marker solution (1.5 mL/body), was orally administered. Thirty minutes after the administration of phenol red, the rats were euthanized by cervical dislocation, and the gastric body clamped at the cardiac and pyloric part of the stomach was obtained. The stomach was homogenized by adding 0.1 M NaOH and centrifugated. The supernatant was mixed with 20 w/v% trichloroacetic acid. After centrifugation, the supernatant was mixed with the same volume of 0.5 mol/L NaOH, and the absorbance was measured at 560 nm. The gastric emptying rate was calculated by the following formula: […]=[1-(opticaldensity[[…])]×100

serum PTH [2] = assay: Serum PTH reduction in common marmosets; assay type: in vivo, common marmoset; set-up: Serum PTH levels: unit not given here
Protocol: The study of effect of evocalcet on emesis in common marmoset was performed by referencing a previously reported method. The marmosets (n = 24) used for this study were housed in cages (460 × 600 × 655 mm) with environmental enrichments (wooden perches, swing, and balls) and acclimated for at least 4 weeks. The marmosets were fasted from evening on the day before administration. […] The serum PTH level was measured using a Porcine Intact PTH ELISA kit (Immutopics, Inc., San Clemente, CA, USA). To evaluate the emetic effects in marmosets, evocalcet (50 or 150 μg/kg) or cinacalcet (1500 or 5000 μg/kg) was orally administered (n = 6/drug, dose down titration, n = 12 in total). The observation of emesis was conducted until 4 h after the administration.

serum calcium = assay: Normal rat study: serum calcium level after oral administration; assay type: in vivo; set-up: Serum Ca: unit not given here; details: normal rats
Protocol: as §1, §2

[3] = evocalcet 0.03 mg/kg oral, 0 h (before administration), group mean, n = 10
[4] = evocalcet 0.03 mg/kg oral, 0 h (before administration), individual rats
[5] = evocalcet 0.03 mg/kg oral, 0.5 h, group mean, n = 10
[6] = evocalcet 0.03 mg/kg oral, 0.5 h, individual rats
[7] = evocalcet 0.03 mg/kg oral, 2 h, group mean, n = 10
[8] = evocalcet 0.03 mg/kg oral, 2 h, individual rats
[9] = evocalcet 0.03 mg/kg oral, 4 h, group mean, n = 10
[10] = evocalcet 0.03 mg/kg oral, 4 h, individual rats
[11] = evocalcet 0.03 mg/kg oral, 6 h, group mean, n = 10
[12] = evocalcet 0.03 mg/kg oral, 6 h, individual rats
[13] = evocalcet 0.03 mg/kg oral, 8 h, group mean, n = 10
[14] = evocalcet 0.03 mg/kg oral, 8 h, individual rats
[15] = evocalcet 0.03 mg/kg oral, 24 h, group mean, n = 10
[16] = evocalcet 0.03 mg/kg oral, 24 h, individual rats
[17] = evocalcet 0.1 mg/kg oral, 0 h (before administration), individual rats
[18] = evocalcet 0.1 mg/kg oral, 0.5 h, individual rats
[19] = evocalcet 0.1 mg/kg oral, 2 h, individual rats
[20] = evocalcet 0.1 mg/kg oral, 4 h, individual rats
[21] = evocalcet 0.1 mg/kg oral, 6 h, individual rats
[22] = evocalcet 0.1 mg/kg oral, 8 h, individual rats
[23] = evocalcet 0.1 mg/kg oral, 24 h, individual rats
[24] = single oral dose, vs vehicle group

SMILES: C[C@@H](N[C@H]1CCN(c2ccc(CC(=O)O)cc2)C1)c1cccc2ccccc12 [evocalcet]
- Serum PTH (serum PTH [1]; [3]): 117.288
- Serum PTH (serum PTH [1]; [4]): 129.159 and 98.086 and 98.874 and 128.658 and 81.261 and 126.366 and 104.386 and 122.715 and 112.906 and 170.470
- Serum PTH (serum PTH [1]; [5]): 51.998
- Serum PTH (serum PTH [1]; [6]): 33.535 and 36.787 and 59.553 and 50.196 and 64.403 and 70.451 and 74.902 and 34.333 and 15.500 and 80.322
- Serum PTH (serum PTH [1]; [7]): 103.394
- Serum PTH (serum PTH [1]; [8]): 15.500 and 69.801 and 132.927 and 117.200 and 119.941 and 109.480 and 83.508 and 88.630 and 158.250 and 138.699
- Serum PTH (serum PTH [1]; [9]): 147.651
- Serum PTH (serum PTH [1]; [10]): 111.671 and 66.789 and 176.435 and 179.922 and 200.545 and 117.161 and 137.784 and 93.718 and 165.530 and 226.956
- Serum PTH (serum PTH [1]; [11]): 186.457
- Serum PTH (serum PTH [1]; [12]): 167.854 and 143.511 and 260.179 and 212.225 and 211.330 and 175.263 and 176.565 and 131.380 and 164.597 and 221.669
- Serum PTH (serum PTH [1]; [13]): 183.556
- Serum PTH (serum PTH [1]; [14]): 144.862 and 141.432 and 139.974 and 226.246 and 213.297 and 177.022 and 177.107 and 148.207 and 214.155 and 253.260
- Serum PTH (serum PTH [1]; [15]): 111.913
- Serum PTH (serum PTH [1]; [16]): 85.800 and 128.079 and 93.520 and 115.512 and 45.316 and 85.890 and 75.657 and 215.959 and 131.939 and 141.454
- Serum PTH (serum PTH [1]; [17]): 112.047 and 96.726 and 90.998 and 167.821
- Serum PTH (serum PTH [1]; [18]): 33.820 and 15.500
- Serum PTH (serum PTH [1]; [19]): 42.097 and 52.053 and 15.500
- Serum PTH (serum PTH [1]; [20]): 266.348 and 163.156 and 79.252 and 192.014
- Serum PTH (serum PTH [1]; [21]): 153.036 and 149.943 and 133.171 and 173.553
- Serum PTH (serum PTH [1]; [22]): 303.000 and 168.617 and 221.701
- Serum PTH (serum PTH [1]; [23]): 120.270 and 80.325 and 122.155
- Strength of pharmacological effect relative to cinacalcet at the same dosage (serum PTH [1]; oral): approximately 30 times
- Doses that significantly reduced the serum PTH level (serum PTH [1]; [24]): ≥ 0.03 mg/kg
- Gastric Emptying (gastric emptying; 0.3 mg/kg, group mean): 67.83%
- Gastric Emptying (gastric emptying; 0.3 mg/kg, individual rats): 75.29% and 74.04% and 68.43% and 31.88% and 68.64% and 79.44% and 65.73% and 79.23%
- Gastric Emptying (gastric emptying; 1 mg/kg, group mean): 65.89%
- Gastric Emptying (gastric emptying; 1 mg/kg, individual rats): 38.94% and 71.96% and 52.65% and 74.45% and 73.42% and 65.94% and 77.15% and 72.59%
- Gastric Emptying (gastric emptying; 3 mg/kg, group mean): 61.58%
- Gastric Emptying (gastric emptying; 3 mg/kg, individual rats): 69.47% and 67.19% and 53.48% and 63.03% and 78.82% and 61.16% and 64.49% and 34.99%
- Dose (3 mg/kg) without delay of gastric emptying relative to the dose required for a significant PTH reduction (gastric emptying; oral): 100 fold
- Effect on gastric emptying (gastric emptying; oral 0.3, 1 and 3 mg/kg (any dose)): no significant effects
- Serum PTH levels (serum PTH [2]; 5 μg/kg, 1 h, individual animals): 19.1 and 25.6 and 158.9
- Serum PTH levels (serum PTH [2]; 5 μg/kg, 1 h, mean): 67.9
- Serum PTH levels (serum PTH [2]; 5 μg/kg, 4 h, individual animals): 52.9 and 115.9 and 433.3
- Serum PTH levels (serum PTH [2]; 5 μg/kg, 4 h, mean): 200.7
- Serum PTH levels (serum PTH [2]; 5 μg/kg, before administration, individual animals): 92.1 and 97.8 and 541.4
- Serum PTH levels (serum PTH [2]; 5 μg/kg, before administration, mean): 243.8
- Serum PTH levels (serum PTH [2]; 150 μg/kg, 1 h, individual animals): 36.4 and 52.9 and 258.2
- Serum PTH levels (serum PTH [2]; 150 μg/kg, 1 h, mean): 115.9
- Serum PTH levels (serum PTH [2]; 150 μg/kg, 4 h, individual animals): 81.0 and 188.4 and 311.9
- Serum PTH levels (serum PTH [2]; 150 μg/kg, 4 h, mean): 193.8
- Serum PTH levels (serum PTH [2]; 150 μg/kg, before administration, individual animals): 57.2 and 203.0 and 236.6
- Serum PTH levels (serum PTH [2]; 150 μg/kg, before administration, mean): 165.6
- Minimum effective dose on PTH reduction (serum PTH [2]; oral): 5 µg/kg
- Serum Ca (serum calcium; [3]): 10.9
- Serum Ca (serum calcium; [4]): 10.2 and 11.0 and 11.2 and 10.8
- Serum Ca (serum calcium; [5]): 11.0
- Serum Ca (serum calcium; [6]): 10.2 and 10.6 and 11.8 and 10.4 and 11.2 and 11.4
- Serum Ca (serum calcium; [7]): 10.8
- Serum Ca (serum calcium; [8]): 10.0 and 11.2 and 10.6 and 10.8 and 11.0 and 10.4
- Serum Ca (serum calcium; [9]): 10.4
- Serum Ca (serum calcium; [10]): 10.2 and 10.8 and 10.0 and 10.6 and 10.4
- Serum Ca (serum calcium; [11]): 10.3
- Serum Ca (serum calcium; [12]): 10.0 and 10.4 and 10.2 and 10.6
- Serum Ca (serum calcium; [13]): 10.5
- Serum Ca (serum calcium; [14]): 9.6 and 10.0 and 8.6 and 10.6 and 11.4 and 10.8 and 12.6
- Serum Ca (serum calcium; [15]): 10.5
- Serum Ca (serum calcium; [16]): 10.2 and 10.4 and 10.6 and 10.8
- Serum Ca (serum calcium; evocalcet 0.1 mg/kg oral, 0 h (before administration), group mean, n = 10): 10.9
- Serum Ca (serum calcium; [17]): 11.0 and 10.8
- Serum Ca (serum calcium; evocalcet 0.1 mg/kg oral, 0.5 h, group mean, n = 10): 10.7
- Serum Ca (serum calcium; [18]): 10.6 and 10.0
- Serum Ca (serum calcium; evocalcet 0.1 mg/kg oral, 2 h, group mean, n = 10): 10.1
- Serum Ca (serum calcium; [19]): 10.2 and 10.0 and 9.8
- Serum Ca (serum calcium; evocalcet 0.1 mg/kg oral, 4 h, group mean, n = 10): 9.8
- Serum Ca (serum calcium; [20]): 9.8 and 10.0 and 10.2 and 9.6
- Serum Ca (serum calcium; evocalcet 0.1 mg/kg oral, 6 h, group mean, n = 10): 9.9
- Serum Ca (serum calcium; [21]): 10.0 and 10.4 and 9.8
- Serum Ca (serum calcium; evocalcet 0.1 mg/kg oral, 8 h, group mean, n = 10): 10.6
- Serum Ca (serum calcium; [22]): 10.4 and 10.8 and 10.6
- Serum Ca (serum calcium; evocalcet 0.1 mg/kg oral, 24 h, group mean, n = 10): 11.6
- Serum Ca (serum calcium; [23]): 12.6 and 10.8 and 12.0
- Serum Ca (serum calcium; evocalcet 0.3 mg/kg oral, 0 h (before administration), individual rats): 10.4 and 10.8 and 11.2
- Serum Ca (serum calcium; evocalcet 0.3 mg/kg oral, 0.5 h, individual rats): 9.6 and 9.4 and 10.4 and 10.0
- Serum Ca (serum calcium; evocalcet 0.3 mg/kg oral, 2 h, individual rats): 9.0 and 9.2 and 9.4 and 9.8
- Serum Ca (serum calcium; evocalcet 0.3 mg/kg oral, 4 h, individual rats): 8.8 and 9.6 and 9.4 and 9.8 and 9.2 and 9.0
- Serum Ca (serum calcium; evocalcet 0.3 mg/kg oral, 6 h, individual rats): 8.6 and 9.8 and 9.6 and 9.4 and 9.0
- Serum Ca (serum calcium; evocalcet 0.3 mg/kg oral, 8 h, individual rats): 9.8 and 10.4 and 9.4 and 8.8
- Serum Ca (serum calcium; evocalcet 0.3 mg/kg oral, 24 h, individual rats): 14.8 and 11.4 and 11.0 and 11.2
- Doses that significantly reduced the serum calcium level (serum calcium; [24]): ≥ 0.1 mg/kg
